{
  "source": "patent US20230087994A1",
  "about": "“TARGETED BIFUNCTIONAL DEGRADERS” (YALE UNIVERSITY, priority 2019, published 2023)",
  "key": {"[1]": {"system": "α-DNP antibody", "assay": "Depletion of α-DNP antibody from serum in mice (ELISA)", "format": "in vivo", "settings": "for serum α-DNP antibody levels compared to PBS: initial 200 μg monoclonal antibody, 21 days, nude mice", "method": "FIG. 94 illustrates that serum levels of α-DNP antibody decrease more rapidly following repeated treatment with DNP-GN3. Serum antibody levels were measured using an ELISA assay. Each experimental group contained three mice. Statistical differences in experiments involving in vivo depletion of α-DNP antibody were assessed by repeated measures two-way ANOVA with Tukey's tests for post-hoc comparison of simple effects between each of the treatment groups and PBS.\nSingle doses of DNP-GN3 were also found to be efficacious at mediating α-DNP antibody depletion, albeit less effectively than daily dosing (FIG. 96). […] Therefore, it was concluded that DNP-GN3 is able to mediate the depletion of a monoclonal antibody from serum, and functions across a wide range of target protein concentrations and dosing regimens.\nDNP-GN3 was also found to be efficacious in depleting polyclonal α-DNP antibody from serum collected from mice immunized with DNP-keyhole limpet haemocyanin (KLH) (FIG. 97). […] Thus, the small molecule DNP-GN3 is not restricted in function to only monoclonal mouse antibodies, but is also effective at removing polyclonal α-DNP antibodies from circulation in mice."}, "[2]": {"system": "HepG2 cells", "assay": "Subcellular localization of α-DNP antibody endocytosed via DNP-GN3 (microscopy)", "format": "cell-based, human", "settings": "after 12 hours"}, "[3]": {"system": "PC3 cells", "assay": "Human prostate cancer PC3 tumor growth in mice", "format": "in vivo", "settings": "control and comparator arms; FIG. 138", "method": "The ability of MIF-GN3 to mediate the depletion of MIF in a therapeutically relevant disease model was investigated. […] An experiment was conducted to determine whether the bifunctional molecule MIF-GN3 can deplete sufficient human MIF from serum to slow PC3 tumor growth. Mice were injected with an aliquot of PC3 cells, and the size of the resultant tumors as well as the levels of human MIF in serum were monitored over five weeks. […] Five weeks after the initial PC3 cell injection, the first of the mice reached maximal tumor size ([…]) and was sacrificed (FIG. 138). […] The decrease in human MIF levels mediated by MIF-GN3 is consistent with a mechanism of action in which MIF-GN3 mediates the depletion and degradation of circulating MIF protein. While the α-MIF antibody would not necessarily be expected to decrease the levels of human MIF, it is possible that the antibody mediates MIF neutralization in a manner which masks its signal as determined by ELISA. Alternatively, the α-MIF antibody may mediate depletion or degradation of huMIF by some endocytic mechanism. Another possible explanation is that the α-MIF antibody decrease serum levels of active human MIF to such an extent at early time points that PC3 cells proliferate much more slowly, and therefore fewer cells are actively secreting human MIF.\nMice were sacrificed when their tumor volumes reached 1000 mm^3. […] At this same time point, less than 25% of the mice in any other arm had survived."}, "[4]": {"system": "HepG2 cells", "assay": "DNP-GN3-mediated endocytosis of fluorescently labeled α-DNP antibody by adherent HepG2 cells", "format": "cell-based, human", "method": "It was next explored whether DNP-GN3 mediates the endocytosis of fluorescently labeled α-DNP antibody.\nTo explore the cellular mechanism of antibody uptake, cells were treated with chemical inhibitors of several endocytic pathways (FIG. 89)."}, "[5]": {"assay": "Tolerability of DNP-GN3 and DNP-OH3 in mice (body weight, AST, ALT)", "format": "in vivo", "method": "FIGS. 93A-93C illustrate that DNP-GN3 and DNP-OH3 are not toxic to mice at all tested concentrations. FIG. 93A: mouse body weight following treatment with DNP-GN3 or DNP-OH3. Statistical differences were analyzed by T test. FIG. 93B: levels of aspartate transaminase (AST) in treated mice. Dashed lines represent the normal range. FIG. 93C: levels of alanine transaminase (ALT) in treated mice. Dashed lines represent the normal range."}, "[6]": {"assay": "Pharmacokinetics of DNP-GN3 in nude mice", "format": "in vivo", "settings": "1 mpk"}, "[7]": {"target": "T1, human MIF (Homo sapiens, UniProt P14174)", "T1 sequence (P14174 2-115 limits assumed)": "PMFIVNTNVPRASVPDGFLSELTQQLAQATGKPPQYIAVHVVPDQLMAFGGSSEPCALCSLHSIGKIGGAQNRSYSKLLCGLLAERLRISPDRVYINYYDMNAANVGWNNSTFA", "assay": "Depletion of injected recombinant human MIF from serum in mice", "format": "in vivo", "parameters": "injected into mice", "settings": "control molecules; FIG. 136", "method": "In vivo human MIF depletion experiments were undertaken to determine whether MIF-GN3 can mediate the depletion of injected recombinant human MIF from serum in mice. Mice were injected with five μg of the human MIF protein. In this experiment, one group of mice was also injected with a single 10 mpk dose of MIF-GN3 along with human MIF protein. It was observed that after four hours, the average level of human MIF in serum in the PBS-treated mice was 1.76 ng/mL (FIG. 134). In mice treated with 10 mpk MIF-GN3, however, the concentration of human MIF in serum was 0.68 ng/mL. One day after the initial injection, human MIF levels had reached background levels for both conditions. […] It was hypothesized that, due to the short half-life of human MIF in serum, investigating human MIF levels at earlier time points may be more informative.\nNext, an experiment was performed to determine whether MIF-GN3 could enhance MIF clearance at time points earlier than four hours. Mice were coinjected with recombinant human MIF and 10 mpk MIF-GN3 via either i.p. or i.v. routes. For the PBS control arms, human MIF was injected with PBS. It was observed that in the absence of MIF-GN3, there was a spike in huMIF levels in circulation after 30 minutes (FIG. 135). In the presence of MIF-GN3, however, levels of MIF protein remained low at 30 minutes and no spike in its concentration was observed. By two hours, the levels of human MIF in circulation decreased to background levels. […] In a further experiment, whether an inhibitor of the MIF protein (3w) is able to mediate the protein's depletion from serum was determined. A bifunctional molecule that mediates the depletion of α-DNP antibody from serum was also assayed as a negative control. Neither of these molecules was expected to mediate the formation of a ternary complex between human MIF protein and ASGPR.\nIn order to confirm that mice injected with one or ten mpk MIF-GN3 had received the injection, and that the observed stability of MIF concentrations in MIF-GN3 treated mice was not the result of injection error, 200 μg of α-DNP antibody was coinjected with the MIF protein in this experiment. […] An investigation of the ability of MIF-GN3 to mediate the depletion of endogenous mouse MIF in vivo was next undertaken. Mice were treated with either PBS or 10 mpk of MIF-GN3. […] One possible explanation for this finding is that MIF protein may be synthesized rapidly, and any increase in degradation mediated by MIF-GN3 may not be of a large enough magnitude to impact the protein's level in serum."}},
  "data": [
    {"smiles": "CC(=O)NC1C(OCCOCCOCCNC(=O)CCOCC(COCCC(=O)NCCOCCOCCOC2OC(CO)C(O)C(O)C2NC(C)=O)(COCCC(=O)NCCOCCOCCOC2OC(CO)C(O)C(O)C2NC(C)=O)NC(=O)CNC(=O)COCCOCCOCCNc2ccc([N+](=O)[O-])cc2[N+](=O)[O-])OC(CO)C(O)C1O", "note": "(stereo not shown) [DNP-GN3]", "values": [
      {"measurement": "α-DNP antibody depleted from serum", "setting": "[1]; 24 hours after a single dose of 1 mpk (vehicle 24%)", "result": 52, "unit": "%"},
      {"measurement": "α-DNP antibody depleted from serum", "setting": "[1]; 24 hours after a single dose of 10 mpk (vehicle 24%)", "result": 34, "unit": "%"},
      {"measurement": "serum α-DNP antibody levels compared to PBS", "setting": "[1]; daily 1 mpk", "result": "significantly reduced"},
      {"measurement": "serum α-DNP antibody levels", "setting": "[1]; daily treatment, initial antibody dose 500 μg", "result": "significant decrease"},
      {"measurement": "polyclonal α-DNP antibody removed from serum compared to PBS", "setting": "[1]; daily treatment, mice immunized with DNP-KLH, each time point", "result": "significantly more polyclonal α-DNP antibody was removed"},
      {"measurement": "α-DNP antibody depletion from serum", "setting": "[1]; single dose of 100 mpk", "result": "Significant depletion"},
      {"measurement": "serum α-DNP antibody levels compared to PBS", "setting": "[1]; twice-daily 1 mpk", "result": "significantly reduced"},
      {"measurement": "colocalization of endocytosed α-DNP antibody with early endosome marker EEA1", "setting": "[2]; FIG. 91A", "result": "No colocalization"},
      {"measurement": "colocalization of α-DNP antibody with lysosome membrane protein LAMP2", "setting": "[2]; FIG. 91B", "result": "strong colocalization"},
      {"measurement": "PC3 tumor growth", "setting": "[3]", "result": "not found to decrease tumor growth"},
      {"measurement": "intracellular fluorescence of adherent HepG2 cells", "setting": "[4]; FIG. 87A", "result": "dependent on the concentration of both DNP-GN3 and α-DNP antibody"},
      {"measurement": "uptake of α-DNP antibody", "setting": "[4]; target protein at 1 nM", "result": "not effective"},
      {"measurement": "toxicity to mice", "setting": "[5]; all tested concentrations, FIGS. 93A-93C", "result": "not toxic"},
      {"measurement": "body weight or serum liver enzyme levels, control versus treatment groups", "setting": "[5]; up to 100 mpk, FIGS. 93A-93C", "result": "no significant differences"},
      {"measurement": "tolerability", "setting": "[5]; up to doses of 100 mpk", "result": "well-tolerated"},
      {"measurement": "bioavailability via IP dosing", "setting": "[6]", "result": "bioavailable"},
      {"measurement": "half-life in serum", "setting": "[6]; IP", "result": 40.2, "unit": "min"},
      {"measurement": "time at which maximal serum concentration is reached", "setting": "[6]; IP", "result": 1, "unit": "h"},
      {"measurement": "human MIF concentration in serum compared to the PBS control", "setting": "[7]", "result": "no significant decreases"}
    ]}
  ]
}
